Test results published in ChEMBL document CHEMBL1201862, “PubChem BioAssay data set” (2004).
Calls of active or inactive are those of the source.

Experiments:
[1] = target: Multidrug resistance protein CDR2 (Candida albicans (strain SC5314 / ATCC MYA-2876) (Yeast), UniProt P78595); test: CaCDR2 efflux pump inhibitors in yeast, dose response, S. cerevisiae AD1-8u, singleplex, Cherry Pick1 hits (AID 588604); format: functional
[2] = target: Latent membrane protein 1 (Human herpesvirus 4 (strain B95-8), UniProt P03230); test: TES1-eGFP NF-kB reporter inhibition versus Tet-On dsRED, dose response, selectivity assay for LMP1 NF-kB inhibitor project, imaging, HEK293T, dual-color eGFP/dsRED, cherry-picks (AID 588398); format: functional, cell-based
[3] = target: T1, High affinity choline transporter 1 (Homo sapiens, UniProt Q9GZV3); test: CHT activators, dose response, cell-based, 10-point CRC, membrane potential dye (AID 602376); format: functional
T1 sequence (Q9GZV3 whole entry): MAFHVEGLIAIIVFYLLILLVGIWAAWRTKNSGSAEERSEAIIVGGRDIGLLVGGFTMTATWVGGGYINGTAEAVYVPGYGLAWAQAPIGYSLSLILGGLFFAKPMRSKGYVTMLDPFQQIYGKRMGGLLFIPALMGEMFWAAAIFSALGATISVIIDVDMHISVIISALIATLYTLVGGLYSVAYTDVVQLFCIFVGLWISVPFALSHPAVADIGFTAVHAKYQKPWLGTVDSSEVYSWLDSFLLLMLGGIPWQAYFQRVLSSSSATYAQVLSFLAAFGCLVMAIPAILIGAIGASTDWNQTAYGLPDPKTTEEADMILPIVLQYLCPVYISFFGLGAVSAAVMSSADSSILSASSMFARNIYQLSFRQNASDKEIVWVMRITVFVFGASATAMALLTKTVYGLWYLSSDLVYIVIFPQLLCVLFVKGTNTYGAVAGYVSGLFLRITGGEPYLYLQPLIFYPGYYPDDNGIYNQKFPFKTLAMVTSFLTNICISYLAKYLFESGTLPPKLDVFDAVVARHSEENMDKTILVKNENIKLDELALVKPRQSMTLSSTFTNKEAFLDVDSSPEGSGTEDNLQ

H9c2 = test: cells; format: functional, cell-based; conditions: Rattus norvegicus, H9c2, Myocardium
Caspase-3 [4] = target: T2, Caspase-3 (Homo sapiens, UniProt P42574); test: caspase-3 inhibitors as off-family protease, SAR follow-up, selectivity assay for SENP protease inhibitor project, biochemical, luminescence, set 2 (AID 588599); format: functional
T2 sequence (P42574 whole entry): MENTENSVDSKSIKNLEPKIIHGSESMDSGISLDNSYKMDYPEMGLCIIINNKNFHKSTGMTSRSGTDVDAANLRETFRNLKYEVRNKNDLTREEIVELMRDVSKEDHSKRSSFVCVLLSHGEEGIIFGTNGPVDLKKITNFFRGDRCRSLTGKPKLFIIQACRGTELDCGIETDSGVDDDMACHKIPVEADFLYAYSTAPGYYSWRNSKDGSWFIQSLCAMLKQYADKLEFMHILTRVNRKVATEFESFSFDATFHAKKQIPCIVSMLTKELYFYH

[5] = target: T3, Sentrin-specific protease 6 (Homo sapiens, UniProt Q9GZR1); test: SENP6 protease inhibitors, SAR follow-up, biochemical, luminescence, set 2 (AID 588598); format: functional
T3 sequence (Q9GZR1 whole entry): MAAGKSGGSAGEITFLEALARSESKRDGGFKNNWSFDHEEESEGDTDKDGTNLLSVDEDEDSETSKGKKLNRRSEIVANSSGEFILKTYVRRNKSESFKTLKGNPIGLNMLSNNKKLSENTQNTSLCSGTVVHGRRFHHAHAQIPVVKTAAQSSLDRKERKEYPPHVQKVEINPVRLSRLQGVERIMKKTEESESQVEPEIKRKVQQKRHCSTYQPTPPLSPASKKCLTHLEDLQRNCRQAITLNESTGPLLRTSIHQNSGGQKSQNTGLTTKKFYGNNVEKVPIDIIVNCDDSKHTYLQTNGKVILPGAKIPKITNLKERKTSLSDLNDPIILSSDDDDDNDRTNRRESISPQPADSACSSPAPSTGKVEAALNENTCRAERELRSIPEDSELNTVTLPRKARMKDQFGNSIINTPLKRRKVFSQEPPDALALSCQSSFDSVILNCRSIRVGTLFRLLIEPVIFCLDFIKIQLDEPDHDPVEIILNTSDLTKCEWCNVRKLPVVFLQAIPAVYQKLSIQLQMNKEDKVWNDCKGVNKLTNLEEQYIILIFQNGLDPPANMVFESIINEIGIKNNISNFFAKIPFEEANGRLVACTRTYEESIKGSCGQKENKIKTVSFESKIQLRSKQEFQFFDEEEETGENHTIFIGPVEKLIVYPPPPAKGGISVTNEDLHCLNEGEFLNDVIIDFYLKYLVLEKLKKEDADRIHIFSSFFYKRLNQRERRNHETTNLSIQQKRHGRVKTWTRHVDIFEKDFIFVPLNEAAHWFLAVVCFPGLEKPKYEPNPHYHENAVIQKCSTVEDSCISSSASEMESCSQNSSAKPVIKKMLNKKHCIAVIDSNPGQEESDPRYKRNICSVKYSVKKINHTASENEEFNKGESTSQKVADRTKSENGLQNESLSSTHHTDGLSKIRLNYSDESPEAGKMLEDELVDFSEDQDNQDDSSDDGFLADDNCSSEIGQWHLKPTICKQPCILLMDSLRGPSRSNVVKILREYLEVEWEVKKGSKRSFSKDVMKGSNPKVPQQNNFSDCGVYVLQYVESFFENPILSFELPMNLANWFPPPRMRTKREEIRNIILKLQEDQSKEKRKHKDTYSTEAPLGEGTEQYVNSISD

Caspase-3 [6] = target: T2, Caspase-3; test: SAR Analysis of small molecule inhibitors of Sentrin-specific proteases (SENPs) using a Caspase-3 Selectivity assay. [Related pubchem assays (depositor defined):AID2540, AID2599, AID434973, AID489001]; format: functional
[7] = target: T4, Sentrin-specific protease 7 (Homo sapiens, UniProt Q9BQF6); test: SENP7 protease inhibitors, SAR follow-up, biochemical, luminescence (AID 504497); format: functional
T4 sequence (Q9BQF6 whole entry): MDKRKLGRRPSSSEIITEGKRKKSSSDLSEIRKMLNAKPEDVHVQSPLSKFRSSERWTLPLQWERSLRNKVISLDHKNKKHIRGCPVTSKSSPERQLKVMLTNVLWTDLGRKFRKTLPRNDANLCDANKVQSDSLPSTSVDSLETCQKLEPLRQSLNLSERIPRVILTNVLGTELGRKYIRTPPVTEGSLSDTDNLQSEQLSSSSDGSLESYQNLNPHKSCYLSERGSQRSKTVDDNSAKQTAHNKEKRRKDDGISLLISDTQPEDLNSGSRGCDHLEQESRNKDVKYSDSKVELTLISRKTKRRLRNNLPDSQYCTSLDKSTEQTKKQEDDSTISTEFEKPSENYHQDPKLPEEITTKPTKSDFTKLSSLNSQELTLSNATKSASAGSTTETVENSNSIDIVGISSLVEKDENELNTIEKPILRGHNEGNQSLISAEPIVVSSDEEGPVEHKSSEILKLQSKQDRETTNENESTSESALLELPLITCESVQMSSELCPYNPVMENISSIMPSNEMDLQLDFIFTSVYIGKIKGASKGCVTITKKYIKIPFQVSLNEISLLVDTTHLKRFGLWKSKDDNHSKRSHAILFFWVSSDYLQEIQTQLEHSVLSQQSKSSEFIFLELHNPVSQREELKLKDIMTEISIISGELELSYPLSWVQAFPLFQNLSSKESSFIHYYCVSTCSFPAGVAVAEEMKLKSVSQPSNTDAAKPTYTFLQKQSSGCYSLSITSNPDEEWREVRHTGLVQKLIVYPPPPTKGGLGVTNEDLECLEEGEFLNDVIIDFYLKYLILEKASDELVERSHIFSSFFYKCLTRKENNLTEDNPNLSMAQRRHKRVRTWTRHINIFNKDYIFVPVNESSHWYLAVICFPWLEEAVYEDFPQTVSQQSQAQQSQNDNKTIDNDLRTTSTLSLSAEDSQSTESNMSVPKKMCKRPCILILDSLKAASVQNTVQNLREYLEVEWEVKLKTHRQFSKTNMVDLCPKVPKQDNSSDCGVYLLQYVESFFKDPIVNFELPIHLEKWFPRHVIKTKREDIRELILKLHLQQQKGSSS

[8] = target: T4, Sentrin-specific protease 7; test: SENP7 protease inhibitors, SAR follow-up, biochemical, luminescence, set 2 (AID 588600); format: functional
[9] = target: T5, Sentrin-specific protease 8 (Homo sapiens, UniProt Q96LD8); test: SENP8 protease inhibitors, SAR follow-up, biochemical, luminescence, set 2 (AID 588601); format: functional
T5 sequence (Q96LD8 whole entry): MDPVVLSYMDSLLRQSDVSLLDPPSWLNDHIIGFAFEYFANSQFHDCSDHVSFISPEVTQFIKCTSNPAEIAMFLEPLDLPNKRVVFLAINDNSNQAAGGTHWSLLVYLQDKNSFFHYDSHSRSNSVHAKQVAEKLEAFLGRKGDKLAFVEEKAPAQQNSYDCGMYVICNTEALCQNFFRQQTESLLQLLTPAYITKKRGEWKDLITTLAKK

[10] = target: T5, Sentrin-specific protease 8; test: SENP8 protease inhibitors, SAR follow-up, biochemical, luminescence (AID 504501); format: functional
[11] = target: T3, Sentrin-specific protease 6; test: SAR Analysis of small molecule inhibitors of Sentrin-specific protease 6 (SENP6) using a Luminescent assay. [Related pubchem assays (depositor defined):AID2582, AID2599]; format: functional
[12] = target: Protein disulfide-isomerase (Homo sapiens, UniProt P07237); test: PDI inhibitors, insulin aggregation turbidity, dose response, biochemical, absorbance, cherry-picked samples (AID 602350); format: functional
[13] = NIH-3T3 fibroblast cytotoxicity, dose response, cytotoxicity control, cell-based, fluorescence, Alamar Blue, secondary assay (AID 2327); format: functional;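 note: NIH-3T3 mouse fibroblasts cultured with fluconazole at 8 µg/mL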
[14] = C. albicans growth with fluconazole, confirmation, fluorescence, retest (AID 2467); format: functional, cell-based
[15] = target: T6, Hepatocyte nuclear factor 4-alpha (Homo sapiens, UniProt P41235); format: functional, cell-based;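 note: biochemical luminescence-based dose-response counterscreen measuring inhibition of HNF4 dimerization, run alongside a screen for blockers of ABHD5–perilipin-5 interaction; split luciferase complementation of HNF4 fusion proteins in cell lysate measuring dimerization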
T6 sequence (P41235 whole entry): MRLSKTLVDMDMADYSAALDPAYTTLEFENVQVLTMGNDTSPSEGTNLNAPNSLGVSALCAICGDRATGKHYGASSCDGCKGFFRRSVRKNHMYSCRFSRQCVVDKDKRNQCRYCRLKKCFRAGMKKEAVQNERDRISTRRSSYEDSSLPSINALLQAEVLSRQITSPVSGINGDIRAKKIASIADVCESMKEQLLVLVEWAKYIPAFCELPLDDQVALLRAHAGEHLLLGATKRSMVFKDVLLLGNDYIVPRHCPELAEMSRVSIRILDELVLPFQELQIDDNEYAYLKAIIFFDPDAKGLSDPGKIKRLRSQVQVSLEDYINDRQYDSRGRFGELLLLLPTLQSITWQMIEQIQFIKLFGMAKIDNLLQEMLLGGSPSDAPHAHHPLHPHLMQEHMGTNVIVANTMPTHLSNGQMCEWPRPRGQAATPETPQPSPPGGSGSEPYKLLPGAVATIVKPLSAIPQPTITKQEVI

INS1 [16] = test: INS-1E beta-cell viability without cytokines, dose response, cytotoxicity control for beta-cell cytokine protection project, CellTiter-Glo luminescence, dry powder (AID 488864); format: functional, cell-based; conditions: Rattus norvegicus
[17] = inhibitors of cytokine-induced nitrite release, dose response, cell-based, Griess absorbance, INS-1E, dry powder, set 3 (AID 488870); format: functional; conditions: Rattus norvegicus
INS1 [18] = test: inhibitors of cytokine-induced nitrite release, dose response, cell-based, Griess absorbance, INS-1E, dry powder, set 2 (AID 488868); format: functional; conditions: Rattus norvegicus
[19] = mammalian cell cytotoxicity, dose response, cytotoxicity control, plate reader, cherry-pick samples (AID 504397); format: functional, cell-based
CAAX prenyl protease 2 [20] = target: T7, CAAX prenyl protease 2 (Saccharomyces cerevisiae S288c, UniProt Q03530); format: biochemical
T7 sequence (Q03530 whole entry): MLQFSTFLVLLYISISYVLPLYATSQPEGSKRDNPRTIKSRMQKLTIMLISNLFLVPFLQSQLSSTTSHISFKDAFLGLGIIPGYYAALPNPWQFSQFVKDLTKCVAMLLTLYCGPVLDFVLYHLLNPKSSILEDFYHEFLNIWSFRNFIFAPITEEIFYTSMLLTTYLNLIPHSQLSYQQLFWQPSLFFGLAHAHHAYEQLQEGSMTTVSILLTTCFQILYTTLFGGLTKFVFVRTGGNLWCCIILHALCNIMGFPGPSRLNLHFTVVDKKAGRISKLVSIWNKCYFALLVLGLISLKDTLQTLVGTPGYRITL

CAAX prenyl protease 2 [21] = target: T7, CAAX prenyl protease 2; test: yeast Rce1 CaaX protease inhibitors, dose response, biochemical, plate reader, dry powder retest (AID 588851)
[22] = target: Glycogen synthase kinase-3 alpha (Homo sapiens, UniProt P49840); format: functional;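 note: GSK3A result taken from a broad kinome-wide kinase panel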
Ephrin type-A receptor 2 = Ephrin type-A receptor 2 (Homo sapiens, UniProt P29317); format: functional;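 note: EPHA2 tested as one member of a kinome-wide kinase panel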
Sequence of Ephrin type-A receptor 2 (P29317 whole entry): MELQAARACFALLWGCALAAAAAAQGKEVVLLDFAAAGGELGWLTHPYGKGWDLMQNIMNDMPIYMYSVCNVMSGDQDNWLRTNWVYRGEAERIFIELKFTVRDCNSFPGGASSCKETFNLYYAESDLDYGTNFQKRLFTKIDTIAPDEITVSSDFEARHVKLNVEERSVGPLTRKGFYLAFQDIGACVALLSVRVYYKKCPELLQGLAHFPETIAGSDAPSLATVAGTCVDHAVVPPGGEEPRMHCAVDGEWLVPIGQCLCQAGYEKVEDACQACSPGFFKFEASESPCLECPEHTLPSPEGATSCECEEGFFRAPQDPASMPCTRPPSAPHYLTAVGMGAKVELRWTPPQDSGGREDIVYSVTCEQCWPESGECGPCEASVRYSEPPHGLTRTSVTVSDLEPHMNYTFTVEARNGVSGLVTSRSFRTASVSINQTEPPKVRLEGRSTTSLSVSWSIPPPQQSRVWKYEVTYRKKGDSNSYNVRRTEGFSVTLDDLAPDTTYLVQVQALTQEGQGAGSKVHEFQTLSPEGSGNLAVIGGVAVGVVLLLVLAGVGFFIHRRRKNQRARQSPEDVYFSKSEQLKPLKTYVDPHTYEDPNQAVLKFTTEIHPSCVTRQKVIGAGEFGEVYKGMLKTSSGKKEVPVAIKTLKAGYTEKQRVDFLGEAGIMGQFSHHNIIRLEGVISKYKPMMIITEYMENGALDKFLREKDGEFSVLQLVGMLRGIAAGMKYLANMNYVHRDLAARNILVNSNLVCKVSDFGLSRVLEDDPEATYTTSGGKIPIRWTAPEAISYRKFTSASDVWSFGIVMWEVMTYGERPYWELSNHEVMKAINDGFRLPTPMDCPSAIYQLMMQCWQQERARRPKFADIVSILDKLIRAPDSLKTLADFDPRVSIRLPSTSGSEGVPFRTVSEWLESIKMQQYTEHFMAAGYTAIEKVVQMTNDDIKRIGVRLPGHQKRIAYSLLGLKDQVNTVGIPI

Sequence of Glycogen synthase kinase-3 alpha (P49840 whole entry): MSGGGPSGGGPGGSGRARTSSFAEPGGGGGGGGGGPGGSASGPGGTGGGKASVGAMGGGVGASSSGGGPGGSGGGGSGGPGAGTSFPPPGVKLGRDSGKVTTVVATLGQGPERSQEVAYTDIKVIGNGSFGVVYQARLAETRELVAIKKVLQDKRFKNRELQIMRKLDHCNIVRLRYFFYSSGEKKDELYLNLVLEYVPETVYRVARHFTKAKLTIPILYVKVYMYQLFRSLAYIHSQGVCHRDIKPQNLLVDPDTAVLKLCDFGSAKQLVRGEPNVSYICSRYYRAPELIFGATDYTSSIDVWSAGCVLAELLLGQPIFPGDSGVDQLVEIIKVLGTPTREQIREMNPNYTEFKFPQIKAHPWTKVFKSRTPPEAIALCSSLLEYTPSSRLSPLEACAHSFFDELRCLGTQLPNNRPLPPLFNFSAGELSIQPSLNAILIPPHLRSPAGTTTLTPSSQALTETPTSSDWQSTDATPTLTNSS
Sequence of Latent membrane protein 1 (P03230 whole entry): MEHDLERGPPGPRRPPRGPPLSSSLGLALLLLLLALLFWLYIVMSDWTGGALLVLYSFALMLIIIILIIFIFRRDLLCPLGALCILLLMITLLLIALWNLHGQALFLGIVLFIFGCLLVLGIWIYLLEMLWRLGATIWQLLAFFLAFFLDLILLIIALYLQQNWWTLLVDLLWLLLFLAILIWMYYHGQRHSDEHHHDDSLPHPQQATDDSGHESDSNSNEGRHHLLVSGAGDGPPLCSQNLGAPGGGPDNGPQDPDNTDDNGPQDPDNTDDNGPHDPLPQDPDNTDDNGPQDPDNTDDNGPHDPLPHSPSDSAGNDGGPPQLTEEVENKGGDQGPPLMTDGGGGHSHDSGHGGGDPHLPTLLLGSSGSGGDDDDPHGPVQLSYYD
Sequence of Multidrug resistance protein CDR2 (P78595 whole entry): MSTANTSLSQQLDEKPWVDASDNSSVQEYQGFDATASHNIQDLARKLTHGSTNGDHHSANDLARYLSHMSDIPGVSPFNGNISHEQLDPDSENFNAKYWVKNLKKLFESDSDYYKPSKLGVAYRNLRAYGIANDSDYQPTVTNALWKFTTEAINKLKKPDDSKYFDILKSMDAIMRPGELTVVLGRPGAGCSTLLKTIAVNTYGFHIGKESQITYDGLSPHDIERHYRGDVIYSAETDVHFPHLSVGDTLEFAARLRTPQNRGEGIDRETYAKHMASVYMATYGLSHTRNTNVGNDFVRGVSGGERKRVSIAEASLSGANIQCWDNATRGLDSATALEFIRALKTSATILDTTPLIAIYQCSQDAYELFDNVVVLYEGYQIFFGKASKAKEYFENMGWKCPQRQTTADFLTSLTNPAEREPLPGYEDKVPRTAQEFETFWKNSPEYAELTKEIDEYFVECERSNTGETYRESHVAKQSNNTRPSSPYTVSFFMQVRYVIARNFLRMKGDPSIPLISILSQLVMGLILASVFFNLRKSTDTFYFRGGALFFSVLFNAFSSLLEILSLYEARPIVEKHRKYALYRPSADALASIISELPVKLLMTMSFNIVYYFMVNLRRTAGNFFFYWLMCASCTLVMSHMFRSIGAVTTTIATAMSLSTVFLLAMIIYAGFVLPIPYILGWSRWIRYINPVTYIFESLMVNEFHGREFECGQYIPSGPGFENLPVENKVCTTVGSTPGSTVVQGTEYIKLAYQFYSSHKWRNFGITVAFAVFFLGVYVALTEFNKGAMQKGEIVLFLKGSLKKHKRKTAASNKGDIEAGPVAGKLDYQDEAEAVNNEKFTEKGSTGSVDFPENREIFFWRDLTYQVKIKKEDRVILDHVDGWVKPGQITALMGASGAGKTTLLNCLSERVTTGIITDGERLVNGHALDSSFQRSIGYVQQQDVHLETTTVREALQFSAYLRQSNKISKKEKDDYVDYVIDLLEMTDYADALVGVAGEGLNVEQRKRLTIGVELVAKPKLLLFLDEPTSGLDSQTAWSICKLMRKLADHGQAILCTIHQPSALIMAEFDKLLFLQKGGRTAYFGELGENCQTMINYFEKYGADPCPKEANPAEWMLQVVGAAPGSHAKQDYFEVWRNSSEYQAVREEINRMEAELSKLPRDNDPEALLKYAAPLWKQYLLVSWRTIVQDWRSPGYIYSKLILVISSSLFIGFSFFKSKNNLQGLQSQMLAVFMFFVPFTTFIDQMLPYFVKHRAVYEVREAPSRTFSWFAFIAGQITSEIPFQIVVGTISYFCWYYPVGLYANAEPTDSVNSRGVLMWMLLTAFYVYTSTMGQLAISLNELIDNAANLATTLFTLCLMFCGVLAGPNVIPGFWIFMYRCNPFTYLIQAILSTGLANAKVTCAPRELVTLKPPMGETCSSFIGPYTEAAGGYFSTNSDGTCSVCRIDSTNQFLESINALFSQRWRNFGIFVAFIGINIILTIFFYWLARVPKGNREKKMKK
Sequence of Protein disulfide-isomerase (P07237 whole entry): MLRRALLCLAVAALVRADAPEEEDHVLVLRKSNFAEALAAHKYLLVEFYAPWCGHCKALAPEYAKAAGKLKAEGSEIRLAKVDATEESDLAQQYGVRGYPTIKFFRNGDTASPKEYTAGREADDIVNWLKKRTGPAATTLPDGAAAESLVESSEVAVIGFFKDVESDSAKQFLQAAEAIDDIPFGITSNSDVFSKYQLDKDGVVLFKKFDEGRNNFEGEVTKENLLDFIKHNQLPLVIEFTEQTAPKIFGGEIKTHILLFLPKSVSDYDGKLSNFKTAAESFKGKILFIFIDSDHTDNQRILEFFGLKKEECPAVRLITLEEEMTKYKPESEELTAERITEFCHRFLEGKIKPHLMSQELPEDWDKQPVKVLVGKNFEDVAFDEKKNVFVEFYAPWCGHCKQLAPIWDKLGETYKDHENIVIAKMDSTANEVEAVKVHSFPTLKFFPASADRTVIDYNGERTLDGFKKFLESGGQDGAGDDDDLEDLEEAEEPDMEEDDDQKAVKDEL

## O=C(Cn1c(COc2ccccc2)nc2ccccc21)Nc1cc(Cl)c(Cl)cc1Cl
[1]
  EC50: 15.7 µM (active)

## O=C(Nc1ccccn1)NC1CCCCC1
[2]
  AC50: 66.5 µM (active)

## COC(=O)c1ccc(C(NC(=O)OCc2ccccc2)/C(C)=C/[C@@H](C)C(=O)NCc2ccc(OC)c(OC)c2)cc1 (some centres undefined)
[3]
  EC50: 12.3 µM (active)
H9c2
  IC50: 10.6 µM (active)

## COc1ccc(/C=C/c2noc(-c3ccccc3O)n2)cc1
Caspase-3 [4]
  IC50: 1.17 µM (active)
[5]
  IC50: 1.26 µM (active)
Caspase-3 [6]
  IC50: 1.4 µM (active)
[7]
  IC50: 1.1 µM (active)
[8]
  IC50: 1.35 µM (active)
[9]
  IC50: 1.19 µM (active)
[10]
  IC50: 1.3 µM (active)
[11]
  IC50: 1.4 µM (active)

## O=C(/C=C/c1ccc(NC(=O)c2ccccc2-c2ccccc2C(=O)O)cc1)c1ccccc1
[12]
  AC50: 11.4 µM (active)
[13]
  EC50: > 150 µM (inactive)
[14]
  EC50: > 38 µM (not active)
[15]
  IC50: 8.66 µM (active)

## C[C@@H]1CN([C@@H](C)CO)C(=O)c2cccc(NC(=O)Nc3cccc4ccccc34)c2O[C@H]1CN(C)S(=O)(=O)c1ccc(OC(F)(F)F)cc1
INS1 [16]
  AC50: 18.5 µM (active)
[17]
  AC50: 20.3 µM (active)
INS1 [18]
  AC50: 16.5 µM (active)

## Cc1ccc(SCc2c(C(=O)N/N=C/c3ccccc3)nnn2-c2nonc2N)cc1
[19]
  AC50: 73 µM (active)
CAAX prenyl protease 2 [20]
  AC50: 0.141 µM (active)
CAAX prenyl protease 2 [21]
  AC50: 3.7 µM (active)

## Cc1ccc(NC(=O)c2cnn3c(-c4ccccc4)ccnc23)cc1C
[22]
  Ki: 7.94 µM (active)
Ephrin type-A receptor 2
  Ki: 2 µM (active)
